Each block holds one compound with its values, some of them ahead of it.
What was measured:
POMC gene expression = assay: Particle-induced POMC gene expression in human epidermal keratinocytes (qRT-PCR); assay type: cell-based; conditions: for POMC 6 h gene expression: control = 1, particles alone 1.5 ± 0.031
Procedure: (§1) Gene expression was analyzed via qRT-PCR.
(§2) Ginger root CO2 extract has been dissolved in DMSO and diluted in medium. […] Gene expression was analyzed via qRT-PCR. […] Table 9 compiles the results for ginger root CO2 extract altered POMC and IL-6 gene expression
(§3) Purple coneflower pressed juice has been dissolved directly in medium. […] Gene expression was analyzed via qRT-PCR. […] Table 10 compiles the results for purple coneflower pressed juice altered POMC and IL-6 gene expression
(§4) A mixture of sclareloide and ginger root CO2 extract has been dissolved directly in medium. […] Gene expression was analyzed via qRT-PCR. […] Table 11 compiles the results for […] altered POMC and IL-6 gene expression

IL-6 gene expression = assay: Particle-induced IL-6 gene expression in human epidermal keratinocytes (qRT-PCR); assay type: cell-based; conditions: for IL-6 6 h gene expression: SRM1650b
Procedure: as §1, §2, §3, §4

MMP1 gene expression = assay: Particle-induced MMP1 gene expression in human epidermal keratinocytes (qRT-PCR); assay type: cell-based; conditions: for MMP-1 24 h gene expression / MMP1 24 h gene expression: SRM1650b; for MMP-1 24 h gene expression: untreated = 1, particles alone 1.57 ± 0.05; for MMP1 24 h gene expression: control = 1, particles alone 1.3 ± 0.03
Procedure: as §1

POMC protein level = assay: Particle-induced POMC protein release from HaCaT cells (ELISA of supernatant); assay type: cell-based
Procedure: II) HaCaT cells are seeded into a 96-well plate with 0.3×10^4 cells/well. After incubation over night the test compound (10 μM Sclareolide) is added to the cells and the plate is incubated for two more hours. Then diesel exhaust particles (SRM 1650b) are added to a final concentration of 1.5 μg/cm2 and the plate incubated for 24 hours. The supernatant is transferred into an ELISA plate (Cusabio, CSB-E09307 h) and the POMC protein level quantified using ELISA technique performed according to the manufacturer's instructions.

AhR = molecular target: T1, AhR (Homo sapiens, UniProt P35869); assay: AhR antagonism, luciferase reporter gene assay in XRE-HepG2 cells; assay type: cell-based; conditions: 16 h or 24 h
T1 construct: endogenous in cells; host or cells: XRE-HepG2 (HepG2 carrying an XRE-driven luciferase reporter)
T1 sequence (P35869 11-848): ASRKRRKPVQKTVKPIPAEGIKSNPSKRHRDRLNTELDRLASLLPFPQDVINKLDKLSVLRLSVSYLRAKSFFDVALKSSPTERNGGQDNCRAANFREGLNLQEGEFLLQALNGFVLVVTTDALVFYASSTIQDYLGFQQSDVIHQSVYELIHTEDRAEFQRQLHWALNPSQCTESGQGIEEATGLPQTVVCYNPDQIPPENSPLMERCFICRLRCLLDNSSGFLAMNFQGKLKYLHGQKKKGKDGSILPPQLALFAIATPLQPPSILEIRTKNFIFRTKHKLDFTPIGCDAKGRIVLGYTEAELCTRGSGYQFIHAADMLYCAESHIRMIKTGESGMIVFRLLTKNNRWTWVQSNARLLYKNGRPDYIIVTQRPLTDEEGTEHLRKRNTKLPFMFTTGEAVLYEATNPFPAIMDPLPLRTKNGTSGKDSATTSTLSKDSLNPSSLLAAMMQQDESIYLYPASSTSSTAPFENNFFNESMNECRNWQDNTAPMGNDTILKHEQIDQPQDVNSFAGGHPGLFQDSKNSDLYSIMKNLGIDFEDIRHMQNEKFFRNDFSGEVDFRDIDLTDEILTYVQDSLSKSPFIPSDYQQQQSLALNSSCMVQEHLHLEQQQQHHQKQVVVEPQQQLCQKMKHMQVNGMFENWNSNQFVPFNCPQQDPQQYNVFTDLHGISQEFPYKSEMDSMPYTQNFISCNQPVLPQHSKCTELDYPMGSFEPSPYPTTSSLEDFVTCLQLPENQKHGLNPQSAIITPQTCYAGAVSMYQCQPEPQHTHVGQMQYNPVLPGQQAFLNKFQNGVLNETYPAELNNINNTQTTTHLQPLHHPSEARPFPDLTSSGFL
Procedure: For reporter gene analyses, 1×10^5 XRE-HepG2 cells/well were seeded in 12-well plates and cultured overnight. Cells were treated for 16 h or 24 h with the indicated substances.
Cell lysates were prepared, and luciferase activities were determined using the luciferase assay system. Protein concentrations were determined by using the BC Assay protein quantification kit. Luciferase activities were normalized against the protein concentration of each probe. Each sample was analyzed in triplicate.

CYP1A1 gene expression = assay: Particle-induced CYP1A1 gene expression in human epidermal keratinocytes (qRT-PCR); conditions: for CYP1A1 Induction mean ± SE: NHEK adult; for CYP1A1 Induction mean ± SE / CYP1A1 gene expression, Induction mean ± SE: 10 μM; for CYP1A1 gene expression, Induction mean ± SE: indoor particles Huber990 1.5 μg/cm2
Procedure: Adult human epidermal keratinocytes were cultured in keratinocyte medium without BPE and without EGF for 24 h prior to addition of model particles (see table 1.1). The model particles were suspended in phosphate buffered saline and were sonicated for 1 min and then directly added to the keratinocytes at 1.5 μg/cm^2. […] Solutions containing the compound with maximal 0.1% DMSO were applied 2 h prior to treatment with the model particles. Gene expression was analyzed via qRT-PCR.

Relative luciferase activity (fold of DMSO control) (AhR; 10 μM + 1 μM BaP, DMSO = 1.00, BaP alone 20.78 ± 1.04): 12.28 ± 4.90 fold of DMSO control
Relative luciferase activity (fold of DMSO control) (AhR; 20 μM + 1 μM BaP, DMSO = 1.00, BaP alone 20.78 ± 1.04): 9.60 ± 1.32 fold of DMSO control
Relative luciferase activity (fold of DMSO control) (AhR; 20 μM alone, no BaP, DMSO = 1.00): 1.06 ± 0.45 fold of DMSO control
Compound: CC1(C)CCC[C@]2(C)C3CC(=O)O[C@]3(C)CC[C@@H]12 (stereo partly drawn) [Sclareolide, (3aR,5aS,9aS,9bR)-decahydro-3a,6,6,9a-tetramethyl-naphtha[2,1-b]furan-2(1H)-one]
particle induced POMC gene expression (result in words) (POMC gene expression): capable to inhibit
POMC 24 h gene expression (POMC gene expression; 10 μM, SRM1650b, untreated = 1, particles alone 1.50 ± 0.06): 1.03 ± 0.07
POMC 24 h gene expression (POMC gene expression; 10 μM, SRM2975, untreated = 1, particles alone 1.30 ± 0.00): 0.73 ± 0.06
particle induced IL-6 gene expression (result in words) (IL-6 gene expression): capable to inhibit
IL-6 6 h gene expression (IL-6 gene expression; 0.00001%, untreated = 1, particles alone 1.90 ± 0.04): 1.53 ± 0.04
IL-6 6 h gene expression (IL-6 gene expression; 0.00005%, untreated = 1, particles alone 1.90 ± 0.04): 1.42 ± 0.02
particle induced MMP1 gene expression (result in words) (MMP1 gene expression): capable to inhibit
MMP-1 24 h gene expression (MMP1 gene expression; 0.00001%): 1.41 ± 0.04
MMP-1 24 h gene expression (MMP1 gene expression; 0.00005%): 1.29 ± 0.02
POMC normalized to control (POMC protein level; 10 μM Sclareolide added 2 h before SRM 1650b 1.5 μg/cm2, 24 hours, control = 1.00, particles alone 1.43 ± 0.082): 1.22 ± 0.009
particle induced POMC release (result in words) (POMC protein level; SRM 1650b): capable to inhibit

CYP1A1 Induction mean ± SE (CYP1A1 gene expression; SRM1650 1.5 μg/cm2, 6 h, untreated = 1, particles alone 2.90 ± 0.12): 0.02 ± 0.00
CYP1A1 Induction mean ± SE (CYP1A1 gene expression; SRM1650 1.5 μg/cm2, 6 h, untreated = 1, particles alone 5.33 ± 0.07): 1.83 ± 0.03
CYP1A1 Induction mean ± SE (CYP1A1 gene expression; SRM1650 1.5 μg/cm2, 24 h, untreated = 1, particles alone 16.53 ± 0.98): 4.17 ± 0.09
CYP1A1 Induction mean ± SE (CYP1A1 gene expression; SRM1650 1.5 μg/cm2, 24 h, untreated = 1, particles alone 23.23 ± 0.64): 8.77 ± 0.09
CYP1A1 Induction mean ± SE (CYP1A1 gene expression; SRM2975 1.5 μg/cm2, 6 h, untreated = 1, particles alone 1.03 ± 0.03 (n.s.)): 0.20 ± 0.00
CYP1A1 Induction mean ± SE (CYP1A1 gene expression; SRM2975 1.5 μg/cm2, 6 h, untreated = 1, particles alone 2.07 ± 0.07): 0.05 ± 0.0003
CYP1A1 Induction mean ± SE (CYP1A1 gene expression; SRM2975 1.5 μg/cm2, 24 h, untreated = 1, particles alone 4.90 ± 0.17): 0.01 ± 0.00
CYP1A1 Induction mean ± SE (CYP1A1 gene expression; SRM2975 1.5 μg/cm2, 24 h, untreated = 1, particles alone 5.10 ± 0.06): 0.60 ± 0.06
particle induced Cyp1A1 gene expression (result in words) (CYP1A1 gene expression; indoor as well as outdoor model particles): capable to inhibit
CYP1A1 gene expression, Induction mean ± SE (CYP1A1 gene expression; 6 h, untreated = 1, particles alone 2.70 ± 0.00): 0.05 ± 0.00
CYP1A1 gene expression, Induction mean ± SE (CYP1A1 gene expression; 24 h, untreated = 1, particles alone 2.90 ± 0.00): 0.20 ± 0.00
Compound: E/Z-2-benzylindene-5,6-dimethoxy-3,3-dimethylindan-1-one [BDDI]
particle induced POMC gene expression (result in words) (POMC gene expression): capable to inhibit
POMC 6 h gene expression (POMC gene expression; 1 μM, SRM1650b): 0.9 ± 0.018
POMC 6 h gene expression (POMC gene expression; 2.5 μM, SRM1650b): 1.1 ± 0.02
POMC 6 h gene expression (POMC gene expression; 10 μM, SRM1650b): 0.9 ± 0.001
particle induced IL-6 gene expression (result in words) (IL-6 gene expression): capable to inhibit
IL-6 6 h gene expression (IL-6 gene expression; 1 μM, control = 1, particles alone 1.4 ± 0.041): 0.9 ± 0.067
IL-6 6 h gene expression (IL-6 gene expression; 2.5 μM, control = 1, particles alone 1.4 ± 0.041): 0.6 ± 0.006
IL-6 6 h gene expression (IL-6 gene expression; 10 μM, control = 1, particles alone 1.4 ± 0.041): 0.5 ± 0.01
particle induced MMP1 gene expression (result in words) (MMP1 gene expression): capable to inhibit
MMP1 24 h gene expression (MMP1 gene expression; 1 μM): 0.7 ± 0.014
MMP1 24 h gene expression (MMP1 gene expression; 2.5 μM): 0.8 ± 0.016
MMP1 24 h gene expression (MMP1 gene expression; 10 μM): 0.5 ± 0.022
